From patent US8067042B1 (Mutual Pharmaceutical Company, Inc., priority 2007, dated 2011) come the findings set out here.

One series deals with T1, CYP1A2 (Homo sapiens, UniProt P05177).
T1 sequence (P05177 1-516): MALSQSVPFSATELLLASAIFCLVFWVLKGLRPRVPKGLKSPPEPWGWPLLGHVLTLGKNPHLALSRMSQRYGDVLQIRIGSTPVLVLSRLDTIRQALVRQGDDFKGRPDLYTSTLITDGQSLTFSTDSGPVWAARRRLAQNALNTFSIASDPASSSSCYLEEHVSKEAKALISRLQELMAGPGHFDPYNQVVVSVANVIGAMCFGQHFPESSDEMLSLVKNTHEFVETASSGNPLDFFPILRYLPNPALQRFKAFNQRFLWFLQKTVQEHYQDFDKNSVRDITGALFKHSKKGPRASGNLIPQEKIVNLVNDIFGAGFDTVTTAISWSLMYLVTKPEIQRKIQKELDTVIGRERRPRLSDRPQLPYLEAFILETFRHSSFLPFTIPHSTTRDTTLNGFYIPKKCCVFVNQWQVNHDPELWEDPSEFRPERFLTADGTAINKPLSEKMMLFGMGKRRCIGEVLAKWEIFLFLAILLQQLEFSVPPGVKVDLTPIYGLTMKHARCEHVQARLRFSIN
The settings on record: 60 min, 5 μM, pH 7.4.

Series [1] deals with T2, CYP2C8 (Homo sapiens, UniProt P10632).
T2 sequence (P10632 1-490): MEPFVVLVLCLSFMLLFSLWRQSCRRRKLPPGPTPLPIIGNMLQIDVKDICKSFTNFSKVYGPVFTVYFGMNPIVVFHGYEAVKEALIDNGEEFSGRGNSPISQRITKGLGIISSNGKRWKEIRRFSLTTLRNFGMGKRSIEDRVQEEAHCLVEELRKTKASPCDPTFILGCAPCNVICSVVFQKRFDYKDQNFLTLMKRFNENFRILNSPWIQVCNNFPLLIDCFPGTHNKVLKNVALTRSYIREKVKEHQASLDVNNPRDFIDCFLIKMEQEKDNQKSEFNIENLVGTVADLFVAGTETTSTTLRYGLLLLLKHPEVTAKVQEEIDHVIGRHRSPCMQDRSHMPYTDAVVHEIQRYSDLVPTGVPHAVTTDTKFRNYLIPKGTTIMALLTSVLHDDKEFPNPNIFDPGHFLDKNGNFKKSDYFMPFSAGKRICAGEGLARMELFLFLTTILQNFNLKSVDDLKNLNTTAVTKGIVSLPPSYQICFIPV
Conditions: 60 min, 100 μM, pH 7.4.
Procedure: After a 5-minute pre-incubation, NRS was added to the incubation mixtures to initiate reactions. The final incubation volume was 0.5 mL. Incubations were continued for 60 minutes. […] In these experiments, each CYP isoform-selective substrate was prepared as 100× stock solutions in the solvent listed below.
Incubation reactions for positive controls were terminated by adding 0.5 mL methanol, except for paclitaxel (CYP2C8) which was terminated by adding 0.75 mL of acetonitrile.
Specific activity for each CYP isoform was calculated based on the formation of metabolite from each CYP isoform-selective substrate.

Series [2] relates to CYP2C8. It is filed as in vitro ADME. The settings on record: 50 μM megestrol acetate (Parent).
Series [3] deals with CYP2E1. Type of series: in vitro ADME. Conditions: 50 μM megestrol acetate (Parent).
The subject of series [4] is CYP2A6. Conditions: 50 μM megestrol acetate (Parent), 0.5 mg/mL pooled human liver microsomes with 1% water (no inhibitor).
In series [5] the target is T3, CYP2B6 (Homo sapiens, UniProt P20813).
T3 sequence (P20813 1-491): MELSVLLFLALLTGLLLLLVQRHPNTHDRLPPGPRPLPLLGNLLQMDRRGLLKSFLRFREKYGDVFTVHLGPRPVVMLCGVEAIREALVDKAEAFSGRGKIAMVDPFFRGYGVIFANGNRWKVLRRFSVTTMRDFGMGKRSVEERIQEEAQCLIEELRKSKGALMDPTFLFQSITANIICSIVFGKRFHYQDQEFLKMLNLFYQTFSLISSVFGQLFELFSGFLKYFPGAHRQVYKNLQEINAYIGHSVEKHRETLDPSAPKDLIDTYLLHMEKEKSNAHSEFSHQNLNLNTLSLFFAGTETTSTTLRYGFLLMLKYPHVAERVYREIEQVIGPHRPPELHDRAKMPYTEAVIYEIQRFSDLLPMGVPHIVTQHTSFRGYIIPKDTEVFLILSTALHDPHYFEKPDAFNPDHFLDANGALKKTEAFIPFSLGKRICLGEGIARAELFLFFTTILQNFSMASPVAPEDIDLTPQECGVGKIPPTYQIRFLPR
The settings on record: 50 μM megestrol acetate (Parent), 0.5 mg/mL pooled human liver microsomes with 1% methanol (no inhibitor). (In general: Microsomes from liver hold many membrane-bound enzymes, among them those of drug oxidation.)

The target of series [6] is T4, CYP2A6 (Homo sapiens, UniProt P11509).
T4 sequence (P11509 1-494): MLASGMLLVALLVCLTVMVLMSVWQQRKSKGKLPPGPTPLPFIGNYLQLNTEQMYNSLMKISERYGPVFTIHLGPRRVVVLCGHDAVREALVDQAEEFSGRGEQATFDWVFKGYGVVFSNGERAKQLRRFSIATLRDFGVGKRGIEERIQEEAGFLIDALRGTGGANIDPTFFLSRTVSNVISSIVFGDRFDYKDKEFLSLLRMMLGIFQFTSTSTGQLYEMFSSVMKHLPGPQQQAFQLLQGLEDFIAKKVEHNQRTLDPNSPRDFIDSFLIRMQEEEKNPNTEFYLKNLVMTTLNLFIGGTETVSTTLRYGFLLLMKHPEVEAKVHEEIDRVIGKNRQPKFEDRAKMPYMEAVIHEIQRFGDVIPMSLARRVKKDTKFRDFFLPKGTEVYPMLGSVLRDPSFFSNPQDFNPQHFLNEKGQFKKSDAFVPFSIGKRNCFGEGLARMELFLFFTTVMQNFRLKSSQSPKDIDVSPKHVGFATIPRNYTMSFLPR
It is filed as in vitro ADME. Details: purchased BD Biosciences Discovery Labware, Woburn, Mass; host or cells: baculovirus-infected insect cells. The settings on record: LC/MS; 50 μM megestrol acetate (Parent), 20 pmol Human CYP2A6 + P450 Reductase + Cytochrome b5 SUPERSOMES

The target in series [7] is T3, CYP2B6. Type of series: in vitro ADME. More on the design: purchased BD Biosciences Discovery Labware, Woburn, Mass; host or cells: baculovirus-infected insect cells. The settings on record: LC/MS; 50 μM megestrol acetate (Parent), 20 pmol Human CYP2B6 + P450 Reductase + Cytochrome b5 SUPERSOMES
Series [8] has as its target T2, CYP2C8. Type of series: in vitro ADME. More on the design: purchased BD Biosciences Discovery Labware, Woburn, Mass; host or cells: baculovirus-infected insect cells. Conditions: LC/MS; 50 μM megestrol acetate (Parent), 20 pmol Human CYP2C8 + P450 Reductase + Cytochrome b5 SUPERSOMES
The target in series [9] is T5, CYP2E1 (Homo sapiens, UniProt P05181). It is filed as in vitro ADME. More on the design: purchased BD Biosciences Discovery Labware, Woburn, Mass; host or cells: baculovirus-infected insect cells. The settings on record: LC/MS; 50 μM megestrol acetate (Parent), 20 pmol Human CYP2E1 + P450 Reductase + Cytochrome b5 SUPERSOMES
The target of series [10] is T4, CYP2A6. Conditions: 10 μM Tranylcypromine.
Series [11] deals with T5, CYP2E1. Conditions: 60 min, 100 μM, pH 7.4.
Setting [12] is: 0.5 mg/mL pooled human liver microsomes with 100 μM Quercetin.
Where [13] appears, read: 0.5 mg/mL pooled human liver microsomes with 0.1% DMSO (no inhibitor).
Where [14] appears, read: 0.5 mg/mL pooled human liver microsomes with 100 μM Diethyldithiocarbamate.
Setting [15] is: 0.5 mg/mL pooled human liver microsomes with 1% water (no inhibitor).

Where “and” joins values, the source holds several entries; their conditions need not be identical. Identical values can stand only once. Like-named read-outs stand apart in the source and are kept apart here.

T5 sequence (P05181 whole entry): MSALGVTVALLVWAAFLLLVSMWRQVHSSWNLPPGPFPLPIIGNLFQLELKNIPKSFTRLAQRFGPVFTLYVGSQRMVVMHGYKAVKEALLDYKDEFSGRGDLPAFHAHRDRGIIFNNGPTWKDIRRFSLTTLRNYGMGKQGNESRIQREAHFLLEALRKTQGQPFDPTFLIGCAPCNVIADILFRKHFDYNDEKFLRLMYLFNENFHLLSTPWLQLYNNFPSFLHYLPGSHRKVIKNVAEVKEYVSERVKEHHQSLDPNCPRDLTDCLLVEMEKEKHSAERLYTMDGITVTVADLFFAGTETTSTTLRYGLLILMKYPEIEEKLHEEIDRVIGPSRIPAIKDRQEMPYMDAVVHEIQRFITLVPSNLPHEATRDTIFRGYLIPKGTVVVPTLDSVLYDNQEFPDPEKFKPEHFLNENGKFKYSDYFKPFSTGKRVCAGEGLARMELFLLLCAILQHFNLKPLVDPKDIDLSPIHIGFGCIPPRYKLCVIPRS

Regarding `Cc1nc2c([nH]1)c(=O)n(C)c(=O)n2Cc1ccco1` [Furafylline], the “Metabolite Formation Adjusted Mean ± SD” value at CYP1A2 came to 0.593 ± 0.0333 µM.
Consider `O=c1c(O)c(-c2ccc(O)c(O)c2)oc2cc(O)cc(O)c12` [Quercetin], for which the “Specific Activity Mean ± SD” value at CYP2C8 [1] is recorded as 2.64 ± 0.250 pmol metabolite/min/pmol protein. At CYP2C8 [1] (microsomes), the “CYP2C8 activity in presence of inhibitor” value is reported as 2.64±0.250 pmol metabolite/minute/mg protein.
`CC(=O)O[C@]1(C(C)=O)CC[C@H]2[C@@H]3C=C(C)C4=CC(=O)CC[C@]4(C)[C@H]3CC[C@@]21C` [Parent]: the Area % was determined as 99.11% in the series on CYP2C8 [2] (setting [12]); 69.53% in the series on CYP2C8 [2] (setting [13]); 90.95% in the series on CYP2E1 [3] (setting [14]); 59.79% in the series on CYP2E1 [3] (setting [15]); 59.79% with CYP2A6 [4]; 63.45% at CYP2B6 [5]. The Area % is reported as 100.00% at CYP2A6 [6], 98.77% at CYP2B6 [7], 99.28% on CYP2C8 [8] and 100.00% at CYP2E1 [9]. In addition, the “Peak Area” value in the series with CYP2C8 [2] (setting [12]) turned out to be 5734.70; in the series with CYP2C8 [2] (setting [13]) it was 4151.30; in the series with CYP2E1 [3] (setting [14]), 5225.10; with CYP2E1 [3] (setting [15]), 3520.60; with CYP2A6 [4], 2932.40; on CYP2B6 [5], 2924.70. Besides, the “Peak Area” value turned out to be 7120.60 on CYP2A6 [6], 7320.20 at CYP2B6 [7], 7474.90 on CYP2C8 [8] and 7274.10 at CYP2E1 [9].
`N[C@@H]1C[C@H]1c1ccccc1` (racemic) [Tranylcypromine]: on CYP2A6 [10], the “CYP2A6 activity in presence of inhibitor” value is 18.7±0.597 pmol metabolite/minute/mg protein; the “Metabolite Formation Adjusted Individual” value was 0.582 µM and 0.548 µM and 0.556 µM; the “Metabolite Formation Adjusted Mean ± SD” value worked out at 0.562 ± 0.0179 µM; the “Metabolite Formation Raw” value is 0.582 µM and 0.5477 µM and 0.5561 µM. In addition, at CYP2A6 [10], the “Specific Activity Individual” value was 19.4 pmol metabolite/min/pmol protein and 18.3 pmol metabolite/min/pmol protein and 18.5 pmol metabolite/min/pmol protein; the “Specific Activity Mean ± SD” value is 18.7 ± 0.597 pmol metabolite/min/pmol protein.
Take `CCN(CC)C(=S)S` [DDC, Diethyldithiocarbamate]: at CYP2E1 [11], the “Metabolite Formation Adjusted Mean ± SD” value was 1.77 ± 0.0341 µM and the “Specific Activity Mean ± SD” value is 58.9 ± 1.14 pmol metabolite/min/pmol protein. Besides, the “CYP2E1 activity in presence of inhibitor” value at CYP2E1 [11] (microsomes) is on record as 58.9±1.14 pmol metabolite/minute/mg protein.
